Experiments:
HCT-116 = experiment: NCI in vitro 60-cell drug screen (SRB assay); type: cell-based; conditions: HCT-116 (Colon cancer); 10^-5 molar concentration; 48 hours
A498 = experiment: NCI in vitro 60-cell drug screen (SRB assay); type: cell-based; conditions: A498 (Renal cancer); 10^-5 molar concentration; 48 hours
NCI-H226 = experiment: NCI in vitro 60-cell drug screen (SRB assay); type: cell-based; conditions: NCI-H226 (Non-small cell lung cancer); 10^-5 molar concentration; 48 hours
NCI-H23 = experiment: NCI in vitro 60-cell drug screen (SRB assay); type: cell-based; conditions: NCI-H23 (Non-small cell lung cancer); 10^-5 molar concentration; 48 hours
PC-3 [1] = experiment: NCI in vitro 60-cell drug screen (SRB assay); type: cell-based; conditions: PC-3 (Prostate cancer); 10^-5 molar concentration; 48 hours
A549/ATCC = experiment: NCI in vitro 60-cell drug screen (SRB assay); type: cell-based; conditions: A549/ATCC (Non-small cell lung cancer); 10^-5 molar concentration; 48 hours
MCF7 = experiment: NCI in vitro 60-cell drug screen (SRB assay); type: cell-based; conditions: MCF7 (Breast cancer); 10^-5 molar concentration; 48 hours
SW-620 = experiment: NCI in vitro 60-cell drug screen (SRB assay); type: cell-based; conditions: SW-620 (Colon cancer); 10^-5 molar concentration; 48 hours
UO-31 = experiment: NCI in vitro 60-cell drug screen (SRB assay); type: cell-based; conditions: UO-31 (Renal cancer); 10^-5 molar concentration; 48 hours
MDA-MB-486 = experiment: NCI in vitro 60-cell drug screen (SRB assay); type: cell-based; conditions: MDA-MB-486 (Breast cancer); 10^-5 molar concentration; 48 hours
SK-MEL-28 = experiment: NCI in vitro 60-cell drug screen (SRB assay); type: cell-based; conditions: SK-MEL-28 (Melanoma); 10^-5 molar concentration; 48 hours
MDA-MB-231/ATCC = experiment: NCI in vitro 60-cell drug screen (SRB assay); type: cell-based; conditions: MDA-MB-231/ATCC (Breast cancer); 10^-5 molar concentration; 48 hours
MOLT-4 = experiment: NCI in vitro 60-cell drug screen (SRB assay); type: cell-based; conditions: MOLT-4 (Leukemia); 10^-5 molar concentration; 48 hours
UACC-62 = experiment: NCI in vitro 60-cell drug screen (SRB assay); type: cell-based; conditions: UACC-62 (Melanoma); 10^-5 molar concentration; 48 hours
OVCAR-4 = experiment: NCI in vitro 60-cell drug screen (SRB assay); type: cell-based; conditions: OVCAR-4 (Ovarian cancer); 10^-5 molar concentration; 48 hours
SR = experiment: NCI in vitro 60-cell drug screen (SRB assay); type: cell-based; conditions: SR (Leukemia); 10^-5 molar concentration; 48 hours
KM12 = experiment: NCI in vitro 60-cell drug screen (SRB assay); type: cell-based; conditions: KM12 (Colon cancer); 10^-5 molar concentration; 48 hours
SF-295 = experiment: NCI in vitro 60-cell drug screen (SRB assay); type: cell-based; conditions: SF-295 (CNS cancer); 10^-5 molar concentration; 48 hours
CAKI-1 = experiment: NCI in vitro 60-cell drug screen (SRB assay); type: cell-based; conditions: CAKI-1 (Renal cancer); 10^-5 molar concentration; 48 hours
M14 = experiment: NCI in vitro 60-cell drug screen (SRB assay); type: cell-based; conditions: M14 (Melanoma); 10^-5 molar concentration; 48 hours
HS 578T = experiment: NCI in vitro 60-cell drug screen (SRB assay); type: cell-based; conditions: HS 578T (Breast cancer); 10^-5 molar concentration; 48 hours
UACC-257 = experiment: NCI in vitro 60-cell drug screen (SRB assay); type: cell-based; conditions: UACC-257 (Melanoma); 10^-5 molar concentration; 48 hours
786-0 = experiment: NCI in vitro 60-cell drug screen (SRB assay); type: cell-based; conditions: 786-0 (Renal cancer); 10^-5 molar concentration; 48 hours
DU-145 = experiment: MTT assay for cell cytotoxicity; type: cell-based, human; conditions: Homo sapiens, 72 h, at least three independent experiments, read-out: MTT assay (IC50 ± SD) DU-145
Procedure, shortened: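 Seeded cells pre-incubated 24 h, then treated 72 h with 0.15–15 µM compound in RPMI-1640/5% FBS at 37 °C. MTT (1 mg/mL) added for 4 h, formazan dissolved in DMSO, absorbance at 560 nm; IC50 from mean of ≥3 independent experiments.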

PC-3 [2] = experiment: MTT assay for cell cytotoxicity; type: cell-based, human; conditions: Homo sapiens, 72 h, at least three independent experiments, read-out: MTT assay (IC50 ± SD) PC-3
SF-268 = experiment: NCI in vitro 60-cell drug screen (SRB assay); type: cell-based; conditions: SF-268 (CNS cancer); 10^-5 molar concentration; 48 hours
MDA-MB-435 = experiment: NCI in vitro 60-cell drug screen (SRB assay); type: cell-based; conditions: MDA-MB-435 (Melanoma); 10^-5 molar concentration; 48 hours
CCRF-CEM = experiment: NCI in vitro 60-cell drug screen (SRB assay); type: cell-based; conditions: CCRF-CEM (Leukemia); 10^-5 molar concentration; 48 hours
SK-MEL-2 = experiment: NCI in vitro 60-cell drug screen (SRB assay); type: cell-based; conditions: SK-MEL-2 (Melanoma); 10^-5 molar concentration; 48 hours

Row | Compound | Growth percent (HCT-116) [%] | Growth percent (NCI-H226) [%] | Growth percent (NCI-H23) [%] | Growth percent (PC-3 [1]) [%] | Growth percent (A549/ATCC) [%] | Growth percent (MCF7) [%] | Growth percent (SW-620) [%] | Growth percent (UO-31) [%] | Growth percent (MDA-MB-486) [%] | Growth percent (SK-MEL-28) [%] | Growth percent (MDA-MB-231/ATCC) [%] | Growth percent (MOLT-4) [%] | Growth percent (UACC-62) [%] | Growth percent (OVCAR-4) [%] | Growth percent (SR) [%] | Growth percent (KM12) [%] | Growth percent (SF-295) [%] | Growth percent (CAKI-1) [%] | Growth percent (M14) [%] | Growth percent (HS 578T) [%] | also measured
1 | O=c1c2cc(Cl)ccc2sc2c(N3CCN(CCO)CC3)nc3ccccc3c12 [Compound 10, 10-Chloro-6-(4-(2-hydroxyethyl)piperazin-1-yl)-12H-thiochrom eno[2,3-c]quinolin-12one] | 69.33 | 89.29 | 84.75 | 77.99 | 95.49 | 51.73 | 88.11 | 42.34 | 81.67 | 100.66 | 55.49 | 70.01 | 91.36 | 85.35 | 79.07 | 101.86 | 100.32 | 87.87 | 101.70 | 76.01 | Growth percent (A498): 62.20%; Growth percent (UACC-257): 102.79%; Growth percent (786-0): 85.58%; IC50 (DU-145): > 15 µM; IC50 (PC-3 [2]): > 15 µM; Growth percent (SF-268): 87.80%; Growth percent (MDA-MB-435): 98.24%; Growth percent (CCRF-CEM): 83.46%; Growth percent (SK-MEL-2): 104.06%
2 | O=C(O)c1c(Sc2ccc(Cl)cc2)c(O)nc2ccccc12 [Compound 2, 3-((4-Chlorophenyl)thio)-2-hydroxyquinoline-4-carboxylic acid] | 103.87 | 105.64 | 92.61 | 93.23 | 107.34 | 91.95 | 96.92 | 68.91 | 104.57 | 98.95 | 95.70 | 97.25 | 102.05 | 98.41 | 106.33 | 112.61 | 98.99 | 76.26 | 106.90 | 88.33 | Growth percent (UACC-257): 121.83%; Growth percent (786-0): 104.44%; IC50 (DU-145): > 15 µM; IC50 (PC-3 [2]): > 15 µM; Growth percent (SF-268): 113.60%; Growth percent (MDA-MB-435): 102.02%; Growth percent (CCRF-CEM): 98.31%; Growth percent (SK-MEL-2): 119.91%
3 | CN1CCN(c2nc3ccccc3c3c(=O)c4cc(Cl)ccc4sc23)CC1 [Compound 8, 10-Chloro-6-(4-methylpiperazin-1-yl)-12H-thiochromeno[2,3-c]q uinolin-12-one] | 80.94 | 85.67 | 81.11 | 84.81 | 99.80 | 76.60 | 95.50 | 48.97 | 102.02 | 107.92 | 57.30 | 87.97 | 99.27 | 94.93 | 86.41 | 110.71 | 91.69 | 87.50 | 102.15 | 65.57 | Growth percent (A498): 79.33%; Growth percent (UACC-257): 100.55%; Growth percent (786-0): 90.48%; IC50 (DU-145): 12.9 ± 0.26 µM; IC50 (PC-3 [2]): 7.18 ± 2.45 µM; Growth percent (SF-268): 82.98%; Growth percent (MDA-MB-435): 105.80%; Growth percent (CCRF-CEM): 91.60%; Growth percent (SK-MEL-2): 97.53%
4 | O=c1c2cc(Cl)ccc2sc2c(N3CCOCC3)nc3ccccc3c12 [Compound 13, 10-Chloro-6-morpholino-12H-thiochromeno[2,3-c]quinolin-12-one] | 85.71 | 88.01 | 95.21 | 79.80 | 92.97 | 50.59 | 96.18 | 73.11 | 39.67 | 111.28 | 71.53 | 89.31 | 87.86 | 96.75 | 88.91 | 88.68 | 93.62 | 90.00 | 110.35 | 83.27 | Growth percent (A498): 94.15%; Growth percent (UACC-257): 110.91%; Growth percent (786-0): 99.31%; IC50 (DU-145): > 15 µM; IC50 (PC-3 [2]): > 15 µM; Growth percent (SF-268): 103.56%; Growth percent (MDA-MB-435): 102.07%; Growth percent (CCRF-CEM): 88.02%; Growth percent (SK-MEL-2): 98.77%
5 | O=c1c2cc(Cl)ccc2sc2c(N3CCN(Cc4ccccc4)CC3)nc3ccccc3c12 [Compound 11, 6-(4-Benzylpiperazin-1-yl)-10-chloro-12H-thiochromeno[2,3-c]q uinolin-12-one] | 98.59 | 88.98 | 89.94 | 89.12 | 106.37 | 68.32 | 93.08 | 64.91 | 98.53 | 104.19 | 89.11 | 90.91 | 96.00 | 102.43 | 85.15 | 107.75 | 94.34 | 94.03 | 93.00 | 76.42 | Growth percent (A498): 94.17%; Growth percent (UACC-257): 95.39%; Growth percent (786-0): 105.57%; IC50 (DU-145): > 15 µM; IC50 (PC-3 [2]): > 15 µM; Growth percent (SF-268): 100.42%; Growth percent (MDA-MB-435): 96.99%; Growth percent (CCRF-CEM): 95.42%; Growth percent (SK-MEL-2): 107.37%
